Measurements published in the NIST ThermoML archive (doi:10.1021/je200637v).
Numbers after ± are expanded uncertainties.

Assay: activity coefficient (dimensionless); of the first substance listed, at infinite dilution; xn = mol fraction of the nth substance listed
Conditions: Liquid, Chromatography, x1 = 0

Work on `CC(C)O` [propan-2-ol] + CCCCCCCCCC[N+](C)(C)C.O=S(=O)([N-]S(=O)(=O)C(F)(F)F)C(F)(F)F yielded an activity coefficient (322.85 K) of 1.38 ± 0.05, an activity coefficient (332.65 K) of 1.28 ± 0.04 and an activity coefficient (343.15 K) of 1.15 ± 0.04.
Work on `CC(C)O` [propan-2-ol] + CCCCCCCC[N+](C)(C)C.O=S(=O)([N-]S(=O)(=O)C(F)(F)F)C(F)(F)F yielded an activity coefficient (322.85 K) of 1.63 ± 0.07 and an activity coefficient (343.15 K) of 1.32 ± 0.05.
`CC(C)O` [propan-2-ol] + CCCCCCCC[N+](CCCCCCCC)(CCCCCCCC)CCCCCCCC.O=S(=O)([N-]S(=O)(=O)C(F)(F)F)C(F)(F)F showed an activity coefficient (322.85 K) of 1.21 ± 0.04, an activity coefficient (332.65 K) of 1.13 ± 0.03 and an activity coefficient (343.15 K) of 1.05 ± 0.03.
Work on `CC(C)O` [propan-2-ol] + CCCC[N+](C)(CCCC)CCCC.O=S(=O)([N-]S(=O)(=O)C(F)(F)F)C(F)(F)F yielded an activity coefficient (322.85 K) of 1.67 ± 0.07, an activity coefficient (332.65 K) of 1.54 ± 0.06 and an activity coefficient (343.15 K) of 1.4 ± 0.05.
For `CCC=O` [propanal] + CCCCCCCCCC[N+](C)(C)C.O=S(=O)([N-]S(=O)(=O)C(F)(F)F)C(F)(F)F, the activity coefficient (322.85 K) was 0.4 ± 0.03, the activity coefficient (332.65 K) was 0.42 ± 0.03 and the activity coefficient (343.15 K) was 0.41 ± 0.03.
In the case of `CCC=O` [propanal] + CCCCCCCC[N+](C)(C)C.O=S(=O)([N-]S(=O)(=O)C(F)(F)F)C(F)(F)F, the activity coefficient (322.85 K) is reported as 0.48 ± 0.03, the activity coefficient (332.65 K) is reported as 0.47 ± 0.03 and the activity coefficient (343.15 K) is reported as 0.46 ± 0.03.
`CCC=O` [propanal] + CCCCCCCC[N+](CCCCCCCC)(CCCCCCCC)CCCCCCCC.O=S(=O)([N-]S(=O)(=O)C(F)(F)F)C(F)(F)F gave an activity coefficient (322.85 K) of 0.25 ± 0.04, an activity coefficient (332.65 K) of 0.35 ± 0.04 and an activity coefficient (343.15 K) of 0.35 ± 0.04.
`CCC=O` [propanal] + CCCC[N+](C)(CCCC)CCCC.O=S(=O)([N-]S(=O)(=O)C(F)(F)F)C(F)(F)F showed an activity coefficient (322.85 K) of 0.49 ± 0.03, an activity coefficient (332.65 K) of 0.49 ± 0.03 and an activity coefficient (343.15 K) of 0.5 ± 0.03.
In the case of `c1ccncc1` [pyridine] + CCCCCCCCCC[N+](C)(C)C.O=S(=O)([N-]S(=O)(=O)C(F)(F)F)C(F)(F)F, the activity coefficient (322.85 K) is reported as 0.46 ± 0.03, the activity coefficient (332.65 K) is reported as 0.47 ± 0.03 and the activity coefficient (343.15 K) is reported as 0.47 ± 0.03.
With `c1ccncc1` [pyridine] + CCCCCCCC[N+](C)(C)C.O=S(=O)([N-]S(=O)(=O)C(F)(F)F)C(F)(F)F the activity coefficient (322.85 K) was 0.45 ± 0.03, the activity coefficient (332.65 K) was 0.44 ± 0.03 and the activity coefficient (343.15 K) was 0.43 ± 0.03.
`c1ccncc1` [pyridine] + CCCCCCCC[N+](CCCCCCCC)(CCCCCCCC)CCCCCCCC.O=S(=O)([N-]S(=O)(=O)C(F)(F)F)C(F)(F)F showed an activity coefficient (322.85 K) of 0.33 ± 0.04, an activity coefficient (332.65 K) of 0.33 ± 0.04 and an activity coefficient (343.15 K) of 0.34 ± 0.04.
In the case of `c1ccncc1` [pyridine] + CCCC[N+](C)(CCCC)CCCC.O=S(=O)([N-]S(=O)(=O)C(F)(F)F)C(F)(F)F, the activity coefficient (322.85 K) is reported as 0.55 ± 0.03, the activity coefficient (332.65 K) is reported as 0.56 ± 0.03 and the activity coefficient (343.15 K) is reported as 0.56 ± 0.03.
Compound `ClC(Cl)(Cl)Cl` [tetrachloromethane] + CCCCCCCCCC[N+](C)(C)C.O=S(=O)([N-]S(=O)(=O)C(F)(F)F)C(F)(F)F has an activity coefficient (322.85 K) of 1.46 ± 0.06, an activity coefficient (332.65 K) of 1.5 ± 0.06 and an activity coefficient (343.15 K) of 1.47 ± 0.06.
For `ClC(Cl)(Cl)Cl` [tetrachloromethane] + CCCCCCCC[N+](C)(C)C.O=S(=O)([N-]S(=O)(=O)C(F)(F)F)C(F)(F)F, the activity coefficient (322.85 K) was 1.63 ± 0.07, the activity coefficient (332.65 K) was 1.63 ± 0.07 and the activity coefficient (343.15 K) was 1.6 ± 0.06.
`ClC(Cl)(Cl)Cl` [tetrachloromethane] + CCCCCCCC[N+](CCCCCCCC)(CCCCCCCC)CCCCCCCC.O=S(=O)([N-]S(=O)(=O)C(F)(F)F)C(F)(F)F gave an activity coefficient (322.85 K) of 0.63 ± 0.03, an activity coefficient (332.65 K) of 0.64 ± 0.03 and an activity coefficient (343.15 K) of 0.64 ± 0.03.
`ClC(Cl)(Cl)Cl` [tetrachloromethane] + CCCC[N+](C)(CCCC)CCCC.O=S(=O)([N-]S(=O)(=O)C(F)(F)F)C(F)(F)F gave an activity coefficient (322.85 K) of 2.11 ± 0.1, an activity coefficient (332.65 K) of 2.11 ± 0.1 and an activity coefficient (343.15 K) of 2.07 ± 0.09.
In the case of `c1ccsc1` [thiophene] + CCCCCCCCCC[N+](C)(C)C.O=S(=O)([N-]S(=O)(=O)C(F)(F)F)C(F)(F)F, the activity coefficient (322.85 K) is reported as 0.65 ± 0.03, the activity coefficient (332.65 K) is reported as 0.7 ± 0.03 and the activity coefficient (343.15 K) is reported as 0.68 ± 0.03.
`c1ccsc1` [thiophene] + CCCCCCCC[N+](C)(C)C.O=S(=O)([N-]S(=O)(=O)C(F)(F)F)C(F)(F)F showed an activity coefficient (322.85 K) of 0.69 ± 0.03, an activity coefficient (332.65 K) of 0.69 ± 0.03 and an activity coefficient (343.15 K) of 0.69 ± 0.03.
`c1ccsc1` [thiophene] + CCCCCCCC[N+](CCCCCCCC)(CCCCCCCC)CCCCCCCC.O=S(=O)([N-]S(=O)(=O)C(F)(F)F)C(F)(F)F showed an activity coefficient (322.85 K) of 0.4 ± 0.03, an activity coefficient (332.65 K) of 0.4 ± 0.03 and an activity coefficient (343.15 K) of 0.41 ± 0.03.
With `c1ccsc1` [thiophene] + CCCC[N+](C)(CCCC)CCCC.O=S(=O)([N-]S(=O)(=O)C(F)(F)F)C(F)(F)F the activity coefficient (322.85 K) was 0.86 ± 0.03, the activity coefficient (332.65 K) was 0.88 ± 0.03 and the activity coefficient (343.15 K) was 0.87 ± 0.03.
Compound `Cc1ccccc1` [toluene] + CCCCCCCCCC[N+](C)(C)C.O=S(=O)([N-]S(=O)(=O)C(F)(F)F)C(F)(F)F has an activity coefficient (322.85 K) of 0.84 ± 0.03, an activity coefficient (332.65 K) of 0.89 ± 0.03 and an activity coefficient (343.15 K) of 0.89 ± 0.03.
With `Cc1ccccc1` [toluene] + CCCCCCCC[N+](C)(C)C.O=S(=O)([N-]S(=O)(=O)C(F)(F)F)C(F)(F)F the activity coefficient (322.85 K) was 0.97 ± 0.03, the activity coefficient (332.65 K) was 0.98 ± 0.03 and the activity coefficient (343.15 K) was 0.98 ± 0.03.
Work on `Cc1ccccc1` [toluene] + CCCCCCCC[N+](CCCCCCCC)(CCCCCCCC)CCCCCCCC.O=S(=O)([N-]S(=O)(=O)C(F)(F)F)C(F)(F)F yielded an activity coefficient (322.85 K) of 0.47 ± 0.03, an activity coefficient (332.65 K) of 0.48 ± 0.03 and an activity coefficient (343.15 K) of 0.49 ± 0.03.
`Cc1ccccc1` [toluene] + CCCC[N+](C)(CCCC)CCCC.O=S(=O)([N-]S(=O)(=O)C(F)(F)F)C(F)(F)F showed an activity coefficient (322.85 K) of 1.13 ± 0.03, an activity coefficient (332.65 K) of 1.19 ± 0.04 and an activity coefficient (343.15 K) of 1.19 ± 0.04.
`ClC(Cl)Cl` [trichloromethane] + CCCCCCCCCC[N+](C)(C)C.O=S(=O)([N-]S(=O)(=O)C(F)(F)F)C(F)(F)F gave an activity coefficient (322.85 K) of 0.65 ± 0.03, an activity coefficient (332.65 K) of 0.68 ± 0.03 and an activity coefficient (343.15 K) of 0.68 ± 0.03.
`ClC(Cl)Cl` [trichloromethane] + CCCCCCCC[N+](C)(C)C.O=S(=O)([N-]S(=O)(=O)C(F)(F)F)C(F)(F)F gave an activity coefficient (322.85 K) of 0.63 ± 0.03, an activity coefficient (332.65 K) of 0.65 ± 0.03 and an activity coefficient (343.15 K) of 0.66 ± 0.03.
`ClC(Cl)Cl` [trichloromethane] + CCCCCCCC[N+](CCCCCCCC)(CCCCCCCC)CCCCCCCC.O=S(=O)([N-]S(=O)(=O)C(F)(F)F)C(F)(F)F showed an activity coefficient (322.85 K) of 0.34 ± 0.04, an activity coefficient (332.65 K) of 0.35 ± 0.04 and an activity coefficient (343.15 K) of 0.36 ± 0.04.
`ClC(Cl)Cl` [trichloromethane] + CCCC[N+](C)(CCCC)CCCC.O=S(=O)([N-]S(=O)(=O)C(F)(F)F)C(F)(F)F showed an activity coefficient (322.85 K) of 0.84 ± 0.03, an activity coefficient (332.65 K) of 0.87 ± 0.03 and an activity coefficient (343.15 K) of 0.88 ± 0.03.
`CCN(CC)CC` [triethylamine] + CCCCCCCCCC[N+](C)(C)C.O=S(=O)([N-]S(=O)(=O)C(F)(F)F)C(F)(F)F gave an activity coefficient (322.85 K) of 2.17 ± 0.1, an activity coefficient (332.65 K) of 2.4 ± 0.11 and an activity coefficient (343.15 K) of 2.31 ± 0.1.
Compound `CCN(CC)CC` [triethylamine] + CCCCCCCC[N+](CCCCCCCC)(CCCCCCCC)CCCCCCCC.O=S(=O)([N-]S(=O)(=O)C(F)(F)F)C(F)(F)F has an activity coefficient (322.85 K) of 1.03 ± 0.03, an activity coefficient (332.65 K) of 1.05 ± 0.03 and an activity coefficient (343.15 K) of 1.02 ± 0.03.
With `CCCCCCCCCCC` [undecane] + CCCCCCCCCC[N+](C)(C)C.O=S(=O)([N-]S(=O)(=O)C(F)(F)F)C(F)(F)F the activity coefficient (322.85 K) was 12.4 ± 0.57, the activity coefficient (332.65 K) was 12.2 ± 0.56 and the activity coefficient (343.15 K) was 11.4 ± 0.52.
`CCCCCCCCCCC` [undecane] + CCCCCCCC[N+](C)(C)C.O=S(=O)([N-]S(=O)(=O)C(F)(F)F)C(F)(F)F gave an activity coefficient (322.85 K) of 25.8 ± 1.2, an activity coefficient (332.65 K) of 23.7 ± 1.1 and an activity coefficient (343.15 K) of 21.1 ± 0.98.
For `CCCCCCCCCCC` [undecane] + CCCCCCCC[N+](CCCCCCCC)(CCCCCCCC)CCCCCCCC.O=S(=O)([N-]S(=O)(=O)C(F)(F)F)C(F)(F)F, the activity coefficient (343.15 K) was 2.54 ± 0.12.
Work on `CCCCCCCCCCC` [undecane] + CCCC[N+](C)(CCCC)CCCC.O=S(=O)([N-]S(=O)(=O)C(F)(F)F)C(F)(F)F yielded an activity coefficient (322.85 K) of 25.7 ± 1.2, an activity coefficient (332.65 K) of 24.8 ± 1.1 and an activity coefficient (343.15 K) of 22.8 ± 1.1.
